The values below come from patent US8273890B2 (4SC AG, priority 2007, dated 2012).

T1 sequence (P53350 whole entry): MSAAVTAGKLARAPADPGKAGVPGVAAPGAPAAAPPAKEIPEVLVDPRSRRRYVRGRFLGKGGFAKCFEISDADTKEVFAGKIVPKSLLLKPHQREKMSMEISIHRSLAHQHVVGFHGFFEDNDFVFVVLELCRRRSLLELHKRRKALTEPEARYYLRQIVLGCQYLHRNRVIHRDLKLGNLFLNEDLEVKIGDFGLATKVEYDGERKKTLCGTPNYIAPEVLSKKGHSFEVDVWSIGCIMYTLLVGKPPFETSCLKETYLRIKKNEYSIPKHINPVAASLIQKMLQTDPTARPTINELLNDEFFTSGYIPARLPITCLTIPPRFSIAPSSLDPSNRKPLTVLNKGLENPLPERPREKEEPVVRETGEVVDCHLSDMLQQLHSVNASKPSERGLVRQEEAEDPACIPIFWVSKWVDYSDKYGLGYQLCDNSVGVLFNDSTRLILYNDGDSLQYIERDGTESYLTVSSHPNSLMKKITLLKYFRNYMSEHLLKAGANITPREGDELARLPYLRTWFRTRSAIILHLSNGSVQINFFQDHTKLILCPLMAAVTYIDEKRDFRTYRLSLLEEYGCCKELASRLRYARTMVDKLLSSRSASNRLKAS

The assay addresses T1, recombinant Plk1 protein (Homo sapiens, UniProt P53350).
T1 construct: histidine tag (N); made in house; host or cells: SF9 insect cells
The experiment in a line: Plk1 kinase activity inhibition assay (33P-ATP, alpha casein substrate, flash plates). The format is biochemical. To be noted: enzymatic assay, 100 nM Li-ATP, 80 minutes at 30° C. The method, boiled down:
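N-terminally His-tagged human Plk1 from SF9 cells (50–100 ng/well) phosphorylated alpha casein (500 ng/well) with 100 nM ATP including 33P-ATP at pH 7.5, with Mg2+ and Mn2+, 80 min at 30 °C. 33P incorporation read on scintillator-coated flash plates; IC50 derived.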
Broadly, the IC50 is the concentration at which inhibition is half-maximal. As to `C[C@@H](Oc1cc(-n2cnc3cnc(CN4CCN(CC5CCN(C)CC5)CC4)cc32)sc1C(N)=O)c1ccccc1C(F)(F)F` [Example 85, 5-[6-({4-[(1-methylpiperidin-4-yl)methyl]piperazin-1-yl}methyl)-1H-imidazo[4,5-c]pyridin-1-yl]-3-{(1R)-1-[2-(trifluoromethyl)phenyl]ethoxy}thiophene-2-carboxamide], the concentration for half-maximal inhibition (IC50) is 100 to 1000 nM.
Regarding `C[C@H](Oc1cc(-n2cnc3cnc(CN4CCN(C)CC4)cc32)sc1C(N)=O)c1ccccc1C(F)(F)F` [Example 48, 5-{6-[(4-methylpiperazin-1-yl)methyl]-1H-imidazo[4,5-c]pyridin-1-yl}-3-{(1S)-1-[2-(trifluoromethyl)phenyl]ethoxy}thiophene-2-carboxamide], the IC50 fell in the range of 10 to 100 nM.
Take `C[C@@H](Oc1cc(-n2cnc3cnc(CN4CCN(c5ccncc5)CC4)cc32)sc1C(N)=O)c1ccccc1C(F)(F)F` [Example 75, 5-{6-[(4-pyridin-4-ylpiperazin-1-yl)methyl]-1H-imidazo[4,5-c]pyridin-1-yl}-3-{(1R)-1-[2-(trifluoromethyl)phenyl]ethoxy}thiophene-2-carboxamide]: the IC50 is 10 to 100 nM.
With `C[C@@H](Oc1cc(-n2cnc3cnc(CN4CCN(CCN5CCOCC5)CC4)cc32)sc1C(N)=O)c1ccccc1C(F)(F)F` [Example 80, 5-(6-{[4-(2-morpholin-4-ylethyl)piperazin-1-yl]methyl}-1H-imidazo[4,5-c]pyridin-1-yl)-3-{(1R)-1-[2-(trifluoromethyl)phenyl]ethoxy}thiophene-2-carboxamide], the IC50 lay within 10 to 100 nM.
Consider `C[C@@H](Oc1cc(-n2cnc3cnc(CN4CCN(c5ccccc5)CC4)cc32)sc1C(N)=O)c1ccccc1C(F)(F)F` [Example 59, 5-{6-[(4-phenylpiperazin-1-yl)methyl]-1H-imidazo[4,5-c]pyridin-1-yl}-3-{(1R)-1-[2-(trifluoromethyl)phenyl]ethoxy}thiophene-2-carboxamide], for which the IC50 was 10 to 100 nM.
As for `CC(Oc1cc(-n2cnc3cc(CNC4CCC4)ncc32)sc1C(N)=O)c1ccccc1C(F)(F)F` (stereo not shown) [Example 111, 5-{6-[(cyclobutylamino)methyl]-3H-imidazo[4,5-c]pyridin-3-yl}-3-{-1-[2-(trifluoromethyl)phenyl]ethoxy}thiophene-2-carboxamide], the IC50 was 100 to 1000 nM.
The value for `CC(C)N1CCN(Cc2cc3c(cn2)ncn3-c2cc(O[C@H](C)c3ccccc3C(F)(F)F)c(C(N)=O)s2)CC1` [Example 121, 5-{6-[(4-isopropylpiperazin-1-yl)methyl]-1H-imidazo[4,5-c]pyridin-1-yl}-3-{(1R)-1-[2-(trifluoromethyl)phenyl]ethoxy}thiophene-2-carboxamide] was below 10 nM; that for `CC(C)CN1CCN(Cc2cc3c(cn2)ncn3-c2cc(O[C@H](C)c3ccccc3C(F)(F)F)c(C(N)=O)s2)CC1` [Example 120, 5-{6-[(4-isobutylpiperazin-1-yl)methyl]-1H-imidazo[4,5-c]pyridin-1-yl}-3-{(1R)-1-[2-(trifluoromethyl)phenyl]ethoxy}thiophene-2-carboxamide] was below 10 nM.
The value for `CCC(Oc1cc(-n2cnc3cnc(CN4CCN(C5CC5)CC4)cc32)sc1C(N)=O)c1ccccc1Cl` (stereo not shown) [Example 140, 3-{[1-(2-chlorophenyl)propyl]oxy}-5-{6-[(4-cyclopropylpiperazin-1-yl)methyl]-1H-imidazo[4,5-c]pyridin-1-yl}thiophene-2-carboxamide] was 10 to 100 nM.
The value for `NC(=O)c1sc(-n2cnc3cnccc32)cc1OCc1ccccc1OC(F)F` [Example 42, 3-{[2-(difluoromethoxy)benzyl]oxy}-5-(1H-imidazo[4,5-c]pyridin-1-yl)thiophene-2-carboxamide] was below 10 nM; that for `CCC(Oc1cc(-n2cnc3cnc(CN4CCN(c5ccncc5)CC4)cc32)sc1C(N)=O)c1ccccc1Cl` (stereo not shown) [Example 143, 3-{[1-(2-chlorophenyl)propyl]oxy}-5-{6-[(4-pyridin-4-ylpiperazin-1-yl)methyl]-1H-imidazo[4,5-c]pyridin-1-yl}thiophene-2-carboxamide] was 10 to 100 nM.
Consider `CC(c1ccccc1)N1CCN(Cc2cc3c(cn2)ncn3-c2cc(O[C@H](C)c3ccccc3C(F)(F)F)c(C(N)=O)s2)CC1` (stereo partly drawn) [Example 119, 5-(6-{[4-(1-phenylethyl)piperazin-1-yl]methyl}-1H-imidazo[4,5-c]pyridin-1-yl)-3-{(1R)-1-[2-(trifluoromethyl)phenyl]ethoxy}thiophene-2-carboxamide], for which the IC50 was below 10 nM.
For `COc1ccc2ncn(-c3cc(OCc4ccccc4C(F)(F)F)c(C(N)=O)s3)c2n1` [Example 22, 5-(5-methoxy-3H-imidazo[4,5-b]pyridin-3-yl)-3-{[2-(trifluoromethyl)benzyl]oxy}thiophene-2-carboxamide], the IC50 is below 10 nM.
On to `CC(=O)N1CCN(Cc2cc3c(cn2)ncn3-c2cc(O[C@H](C)c3ccccc3C(F)(F)F)c(C(N)=O)s2)CC1` [Example 118, 5-{6-[(4-acetylpiperazin-1-yl)methyl]-1H-imidazo[4,5-c]pyridin-1-yl}-3-{(1R)-1-[2-(trifluoromethyl)phenyl]ethoxy}thiophene-2-carboxamide], for which the concentration for half-maximal inhibition (IC50) is 10 to 100 nM.
Regarding `NC(=O)c1sc(-n2cnc3cccnc32)cc1OCc1ccccc1C(F)(F)F` [Example 19, 5-(3H-Imidazo[4,5-b]pyridin-3-yl)-3-{[2-(trifluoromethyl)benzyl]oxy}thio-phene-2-carboxamide], the IC50 lay in the range of 10 to 100 nM.
On to `CCC(Oc1cc(-n2cnc3cnc(CN4CCN(C(=O)N(C)C)CC4)cc32)sc1C(N)=O)c1ccccc1Cl` (stereo not shown) [Example 137, 4-{[1-(5-carbamoyl-4-{[1-(2-chlorophenyl)propyl]oxy}-2-thienyl)-1H-imidazo[4,5-c]pyridin-6-yl]methyl}-N,N-dimethylpiperazine-1-carboxamide], for which the concentration for half-maximal inhibition (IC50) is 10 to 100 nM.
On to `C[C@@H](Oc1cc(-n2cnc3cnc(CN4CCC(N(C)C)C4)cc32)sc1C(N)=O)c1ccccc1C(F)(F)F` (stereo partly drawn) [Example 144, 5-(6-{[3-(dimethylamino)pyrrolidin-1-yl]methyl}-1H-imidazo[4,5-c]pyridin-1-yl)-3-{(1R)-1-[2-(trifluoromethyl)phenyl]ethoxy}thiophene-2-carboxamide], for which the IC50 is below 10 nM.
For the molecule `C[C@@H](Oc1cc(-n2cnc3cc(CN4CCN(C)CC4)ncc32)sc1C(N)=O)c1ccccc1C(F)(F)F` [Example 49, 5-{6-[(4-methylpiperazin-1-yl)methyl]-3H-imidazo[4,5-c]pyridin-3-yl}-3-{(1R)-1-[2-(trifluoromethyl)phenyl]ethoxy}thiophene-2-carboxamide], the IC50 lay in the range of 1000 to 10000 nM.
The value for `COc1cc2ncn(-c3cc(OCc4ccccc4C(F)(F)F)c(C(N)=O)s3)c2nc1OC` [Example 21B, 5-(5,6-Dimethoxy-3H-imidazo[4,5-b]pyridin-3-yl)-3-{[2-(trifluoromethyl)benzyl]oxy}thiophene-2-carboxamide] was 10 to 100 nM; that for `CCC(Oc1cc(-n2cnc3cnc(CO)cc32)sc1C(N)=O)c1ccccc1Cl` (stereo not shown) [Example 56, 3-{[1-(2-chlorophenyl)propyl]oxy}-5-[6-(hydroxymethyl)-1H-imidazo[4,5-c]pyridin-1-yl]thiophene-2-carboxamide] was below 10 nM.
The value for `C[C@@H](Oc1cc(-n2cnc3cc(CN)ncc32)sc1C(N)=O)c1ccccc1C(F)(F)F` [Example 50, 5-[6-(aminomethyl)-3H-imidazo[4,5-c]pyridin-3-yl]-3-{(1R)-1-[2-(trifluoromethyl)phenyl]ethoxy}thiophene-2-carboxamide] was 10 to 100 nM; that for `CC(=O)N1CCCN(Cc2cc3c(cn2)ncn3-c2cc(O[C@H](C)c3ccccc3C(F)(F)F)c(C(N)=O)s2)CC1` [Example 81, 5-{6-[(4-acetyl-1,4-diazepan-1-yl)methyl]-1H-imidazo[4,5-c]pyridin-1-yl}-3-{(1R)-1-[2-(trifluoromethyl)phenyl]ethoxy}thiophene-2-carboxamide] was 10 to 100 nM; that for `C[C@@H](Oc1cc(-n2cnc3cnc(CN4CCN(CCN(C)C)CC4)cc32)sc1C(N)=O)c1ccccc1F` [Example 136, 5-[6-({4-[2-(dimethylamino)ethyl]piperazin-1-yl}methyl)-1H-imidazo[4,5-c]pyridin-1-yl]-3-[(1R)-1-(2-fluorophenyl)ethoxy]thiophene-2-carboxamide] was 100 to 1000 nM.
With `NC(=O)c1sc(-n2cnc3cnccc32)cc1OCc1cccc(C(F)(F)F)c1` [Example 35, 5-(1H-imidazo[4,5-c]pyridin-1-yl)-3-{[3-(trifluoromethyl)benzyl]oxy}thiophene-2-carboxamide], the 50% inhibitory concentration (IC50) lay in the range of 10 to 100 nM.
For the molecule `CC(Oc1cc(-n2cnc3cnc(CO)cc32)sc1C(N)=O)c1ccccc1C(F)(F)F` (stereo not shown) [Example 44, 5-[6-(hydroxymethyl)-1H-imidazo[4,5-c]pyridin-1-yl]-3-{1-[2-(trifluoromethyl)phenyl]ethoxy}thiophene-2-carboxamide], the IC50 was below 10 nM.
For `C[C@@H](Oc1cc(-n2cnc3cnc(CNCCN4CCOCC4)cc32)sc1C(N)=O)c1ccccc1C(F)(F)F` [Example 147, 5-(6-{[(2-morpholin-4-ylethyl)amino]methyl}-1H-imidazo[4,5-c]pyridin-1-yl)-3-{(1R)-1-[2-(trifluoromethyl)phenyl]ethoxy}thiophene-2-carboxamide], the IC50 is 10 to 100 nM.
Regarding `C[C@@H](Oc1cc(-n2cnc3cnc(CNCCN4CCN(C)CC4)cc32)sc1C(N)=O)c1ccccc1C(F)(F)F` [Example 88, 5-[6-({[2-(4-methylpiperazin-1-yl)ethyl]amino}methyl)-1H-imidazo[4,5-c]pyridin-1-yl]-3-{(1R)-1-[2-(trifluoromethyl)phenyl]ethoxy}thiophene-2-carboxamide], the IC50 is 10 to 100 nM.
In the case of `COCCN1CCN(Cc2cc3c(cn2)ncn3-c2cc(O[C@H](C)c3ccccc3C(F)(F)F)c(C(N)=O)s2)CC1` [Example 69, 5-(6-{[4-(2-methoxyethyl)piperazin-1-yl]methyl}-1H-imidazo[4,5-c]pyridin-1-yl)-3-{(1R)-1-[2-(trifluoromethyl)phenyl]ethoxy}thiophene-2-carboxamide], the half-maximal inhibitory concentration (IC50) was below 10 nM.
